# In patent US20060160897A1, “Topical Use of Valproic Acid for the Prevention or Treatment of Skin Disorders” (priority 2003, published 2006):
# Columns and labels:
# [1] = tested on: IL-2 and TNF-α; test: IL-2 and TNF-α ELISA, supernatants of stimulated peripheral blood lymphocytes; assay type: cell-based, human; settings: PBLs, FIG. 15; for concentration at which inhibition of IL-2 and TNF-α expression was maximal: CD3/CD28; for IL-2 secretion, dose-response / TNF-α secretion, dose-response: increasing concentrations two hours, CD3 and CD28 mAbs 24 hours
# Procedure: (§1) Monocyte and macrophage depleted peripheral blood mononuclear cells were obtained from consenting adults via separation using Ficoll-Hypaque. The peripheral blood mononuclear cells (PBMC) fraction was washed and seeded in 9 cm petri dishes. After an incubation of 2 hours at 37° C. to remove most of the monocytes, macrophages, and B-cells, the non-adherent cells were collected and cultured in 175 cm^2 flasks for 2 days. Cells were harvested and adjusted to 3 million cells per ml. Aliquots of 500 μl were transferred to each well of 24-well flat bottom plates. Peripheral blood lymphocytes (PBL's) were treated with various concentrations of HDAC inhibitors as indicated. After a 2 hours incubation time at 37° C. cells were stimulated with phorbol 12-myristate 13-acetate (PMA)/ionomycin (Ion) or activated via T cell receptor (TCR/CD3) complex with 10 μg/ml anti-CD3 mAb (OKT3) and 2.5 μg/ml anti-CD28 mAb. After 24 hours at 37° C. the supernatant was removed and frozen for cytokine assays. Cell pellets were lysed and total RNA was isolated using the RNeasy mini kit from Qiagen.
# To perform ELISAs, supernatants of treated and untreated PBL's were collected and IL-2 as well as TNF-α were measured using the Duo Set ELISA Development System (R&D Systems) as described by the manufacturer.
# [2] = tested on: inflammatory cytokines; test: Semiquantitative RT-PCR of cytokine mRNA, PMA/Ion stimulated peripheral blood lymphocytes; assay type: cell-based, human; settings: for cytokine expression (mRNA): PMA/Ion stimulation, FIG. 13 A and B
# Procedure: as §1
# (§2) One microgram of total RNA was transcribed to cDNA by standard methods using reverse transcriptase and an oligo-dT primer (Invitrogen). For semiquantitative PCR, 2 μl of cDNA was amplified by PCR using specific primers. Primers for PCR were synthesized by MWG and are as follows: […]
# [3] = tested on: Basal Cell Carcinoma; test: Topical treatment of BCC patients with Tazarotene and VPA; assay type: in vivo, human; settings: 4 lesions pre-treated with Tazarotene alone for at least 16-20 weeks
# Procedure: 10 lesions were treated: 8 Superficial BCCs and 2 pigmented BCC. […] Lesions were evaluated clinically and photographed every two weeks.
# [4] = tested on: Basal Cell Carcinoma; settings: Tazarotene used alone; cited from earlier work
# [5] = tested on: HaCaT cells; test: MTT assay, growth of human immortalized keratinocytes; assay type: cell-based
# Procedure: MTT assay: This calorimetric assay detects the formation of formazan which is proportional to the number of cells present. Tissue culture medium containing drugs was removed and 200 μl of DME containing 2 mg/ml MTT ((3-4, 5-dimethyl thiazol-2yl) 2,5-diphenyltetrazolium bromide) was added to each well. 96-well plates were incubated at 37 ° C., and 10% CO2 for 30 minutes. Medium containing MTT was then removed and the cells were washed once with PBS. Following removal of the PBS, 200 μL DMSO was added to each well and plates were placed on a rotating platform shaker for 5 minutes. Results were obtained by reading the absorbance at a wavelength of 550 nm using a spectrophotometer. Results are expressed as percentages setting the control as 100%.
# FIG. 1 graphically depicts the results of growth assays performed on human immortalized keratinocytes (HaCaT cells), treated for three days with the indicated compounds. Drugs were added on the same day of plating (day 0). The MTT assay (to measure cell proliferation) was carried out on day 3. Various combinations of the drugs were used in the growth assays.
# Cells were plated in wells on day 0. […] The MTT assay was carried out on day 3. Various combinations of the drugs were also used in the growth assays. […] Thus, the combinatorial activity of these two drugs must be explained via synergistic activity of this treatment.
# Drugs were added on the same day of plating (day 0). The MTT assay (to measure cell proliferation) was carried out on the third day. […] Thus, this combinatorial activity of these two drugs must be explained via synergistic activity of this treatment.
# [6] = tested on: HaCaT cells; test: Apoptosis assay, flow cytometry of Sub-G1 DNA containing cells; assay type: cell-based, human; settings: drugs day 1, assay day 2, combinations VPA 1 mM + Tazarotene 1 or 2 μM, FIG. 5
# Procedure: Apoptosis assays: Apoptosis was measured by a Beckton Dickinson FACScalibur flow cytometer by analysing the percentage of Sub-G1 DNA containing cells. 10000 events were recorded for each sample. The amplification scale was linear for all parameters. Photomultiplier tension was set as to place the peak DNA content corresponding cells in G0/G1 at channel 300 in the FL2-H vs SCC—H graphs. Cells showing a less than peak DNA content (hypodiploid cells) and high SSC—H (granular high condensed cells) were regarded as apoptotic. The experiments were repeated three times in duplicate. Error bars represent 1 standard deviation.
# Cells were plated in 35 mm diameter wells on day 0. Drugs were added on day 1. The apoptosis assay was carried out on day 2. […] Thus, the combinatorial activity of these two drugs must be explained via synergistic activity of this treatment.
# [7] = tested on: T-cell lymphomas; settings: phase II trial (Piekarz et al., 2001); cited from earlier work
# [8] = tested on: acute promyelocytic leukemia; settings: one PML-RAR patient with multiple relapses after retinoic acid (Warrell et al., 1998); cited from earlier work
# [9] = tested on: PPARδ; settings: cited from earlier work
# [10] = tested on: inflammatory cytokines; test: Semiquantitative RT-PCR of cytokine mRNA, LPS stimulated keratinocytes; assay type: cell-based, human; settings: HaCaT, 200 nM TSA or 5 mM VPA 4 hours, then LPS 100 ng/ml 24 hours, FIG. 12A
# Procedure: Human immortalized keratinocytes (HaCaT cells) were seeded at a density of 2.5 million cells per ml into 75 cm^2 flasks. […] After 24 hours at 37° C. cells were lysed and total RNA was isolated using the RNeasy mini kit from Qiagen.
# as §2
# [11] = tested on: F9 cells; settings: cited from earlier work
# [12] = tested on: stage III/IV non-small cell lung cancer; settings: monotherapy, phase II (Keer et al., 2002); cited from earlier work
# [13] = PBLs preincubated 2 hours, PMA/Ion 24 hours, FIGS. 12B, 13
# [14] = vs untreated stimulated control
compound,measurement,setting,value
O=C(/C=C/C1CCCCC1)NO [G2M-707],concentration at which inhibition of IL-2 and TNF-α expression was maximal,[1],1 µM
same,"IL-2 secretion, dose-response",[1],dose-dependent inhibition
same,"TNF-α secretion, dose-response",[1],dose-dependent inhibition
same,cytokine expression (mRNA),[2],can modulate cytokine expression
CCOC(=O)c1ccc(C#Cc2ccc3c(c2)C(C)(C)CCS3)nc1 [Tazarotene],tumor diameter under Tazarotene alone,[3],no reduction of tumor diameter
same,share of BCC's in which regression is induced,[4],~50%
same,side effects (such as pain and itching),[4],several unwanted side effects
same,time to regression,[4],12-24 weeks
same,cell growth (MTT assay),"[5]; treated three days, MTT on day 3, combinations VPA 1 mM + Tazarotene 1 or 2 μM, FIG. 1",inhibited cell growth
same,apoptosis (Sub-G1 DNA containing cells),[6],induces apoptosis
C/C=C1\NC(=O)[C@H]2CSSCC/C=C/[C@H](CC(=O)N[C@H](C(C)C)C(=O)N2)OC(=O)[C@H](C(C)C)NC1=O [depsipeptide],clinical outcome,[7],used successfully
phenylbutyrate,clinical outcome of leukemia,[8],complete remission of the leukemia
"CC(/C=C/C(=O)NO)=C\[C@@H](C)C(=O)c1ccc(N(C)C)cc1 [TSA, trichostatin A]",IL-4 mRNA transcripts,[2]; [13],significantly reduced
same,IL-6 mRNA transcripts,[2]; [13],only moderate effects
same,PPARδ activation,[9],activates
same,IFN-γ mRNA transcript,[10],virtually unaffected
same,IL-6 mRNA level,[10]; [14],significant decrease
same,TNF-α mRNA level,[10]; [14],significant decrease
same,F9 cell differentiation,[11],induces the same type of F9 cell differentiation as VPA
"O=c1[nH]cc(F)c(=O)[nH]1 [5-FU, 5-Fluorouracil]",cell growth (MTT assay),"[5]; MTT on the third day, 5 μM or 10 μM 5-FU and 1 mM VPA, FIG. 3",inhibited growth
"CCCC(=O)OCOC(=O)C(C)(C)C [Pivanex, Pivaloyloxymethyl butyrate]",clinical activity,[12],demonstrating activity
O=C(CCC1CCCC1)NO [G2M-701],concentration at which inhibition of IL-2 and TNF-α expression was maximal,[1],6 µM
same,"IL-2 secretion, dose-response",[1],dose-dependent inhibition
same,"TNF-α secretion, dose-response",[1],dose-dependent inhibition
same,cytokine expression (mRNA),[2],can modulate cytokine expression
O=C(CCC1CCCCC1)NO [G2M-702],concentration at which inhibition of IL-2 and TNF-α expression was maximal,[1],3 µM
same,"IL-2 secretion, dose-response",[1],dose-dependent inhibition
same,"TNF-α secretion, dose-response",[1],dose-dependent inhibition
same,cytokine expression (mRNA),[2],can modulate cytokine expression
"O=C(CCCCCCC(=O)Nc1ccccc1)NO [SAHA, suberoylanilide hydroxamic acid]",cytokine expression (mRNA),[2],can modulate cytokine expression
